{"source": "patent US11370825B2", "about": "“Polypeptides, cells, and methods involving engineered CD16” (Regents of the University of Minnesota, priority 2014, dated 2022)", "key": {"ADAM17": {"tested_on": "ADAM17", "test": "Soluble CD16a released from transfected HEK293 cells stably expressing human γ chain, ELISA (shedding)", "format": "cell-based", "conditions": "untreated and PMA-treated HEK293 cells stably expressing human γ chain", "description": "FIG. 3. Effects of the engineered S197P mutation on CD16a and CD16b shedding. Transfected HEK293 (human embryonic kidney) cells separately expressed CD16b and CD16b/S197P (A) or CD16a and CD16a/S197P (B) at similar levels, as determined by flow cytometry (left panels). The different transfectants were treated with or without PMA (15 ng/ml for 30 minutes at 37° C.) and soluble levels of CD16 in the media supernatant were quantified by ELISA (right panels). Each treatment condition was repeated three times for each experiment and the data are representative of three independent experiments. Bar graphs show mean±SD. Statistical significance is indicated as ***P<0.001. […] Surface levels of L-selectin and CD16b/S197P on transfected and mock-transfected cells were measured using flow cytometry (histogram plots). Transfectants expressing L-selectin or L-selectin and CD16b/S197P were incubated in the presence or absence of PMA for 30 minutes at 37° C., and the mean fluorescence intensity (MFI) of L-selectin staining determined (bar graph). […] For all histogram plots, the x-axis=Log 10 fluorescence and the y-axis=cell number.\n(§1) HEK293 cells (a human embryonic kidney cell line) and NK92 cells (a human NK cell line) (ATCC, Manassas, Va.) were cultured according to the depository's instructions. […] Construct expression was assessed by EGFP fluorescence and CD16 staining, as determined by flow cytometry. […]"}, "NK92 cells": {"tested_on": "NK92 cells", "test": "Cell surface CD16a levels on transduced NK92 cells after activation, flow cytometry", "format": "cell-based, human", "description": "FIG. 4. Effects of the engineered S197P mutation on CD16a shedding in NK cells. NK92 cells transduced with empty vector (vector only), CD16a, or CD16a/S197P were treated without (Unstim.) or with PMA (100 ng/ml) for 30 minutes at 37° C. (A), with IL-12 and IL-18 (100 ng/ml and 400 ng/ml, respectively) for 24 hours at 37° C. (B), or with Raji cells and rituximab for 60 minutes at 37° C. (C). Cell surface levels of CD16a were determined by flow cytometry. Isotype-matched negative control antibody staining is indicated by a dotted line. (D) Parent NK92 cells and transduced cells expressing CD16a or CD16a/S197P were treated with Raji cells and rituximab in the presence or absence of the ADAM17 inhibitor BMS566394 (5 μM) for 60 minutes at 37° C. Soluble CD16a levels were determined by ELISA. Each treatment condition was repeated three times and the data are representative of three independent experiments. Bar graphs show mean±SD. Statistical significance is indicated as ***P<0.001. (E) NK92 cells expressing CD16a or CD16a/S197P were stained with the anti-ADAM17 mAbs M220, 623, 633, or an isotype-matched negative control antibody, as indicated. (F) CD56^+CD45^+ NK cells derived from mock-transduced iPSCs (left panel) or iPSCs expressing recombinant CD16a or CD16a/S197P (right panels) were incubated with or without K562 target cells for four hours at 37° C. For all histogram plots, the x-axis=Log 10 fluorescence, the y-axis=cell number, and the data are representative of at least 3 independent experiments.\nas §1, with “instructions. HEK293 cells were transiently transfected with pcDNA3.1 with or without CD16b, CD16b/S197P, and/or L-selectin using Lipofectamine 2000 (Invitrogen, Carlsbad, Calif.) according to the manufacturer's instructions.” for “instructions.”"}}}
{"substance": "CD16a/S197P: Human CD16a (FcγRIIIa, SEQ ID NO:1) with serine-197 substituted by proline in the membrane proximal cleavage region; expressed recombinantly in cells", "values": [{"measurement": "soluble levels of receptor in media supernatant compared to CD16a", "setting": "ADAM17", "value": "significantly lower levels"}]}
{"substance": "CD16a: Wild-type human IgG Fc receptor CD16a (FcγRIIIa), valine allelic variant, recombinant comparator [reference compound]", "values": [{"measurement": "down-regulation in cell surface expression of CD16", "setting": "NK92 cells; IL-12 100 ng/ml and IL-18 400 ng/ml, 24 hours at 37° C.", "value": "appreciable down-regulation"}, {"measurement": "down-regulation in cell surface expression of CD16", "setting": "NK92 cells; PMA 100 ng/ml, 30 minutes at 37° C.", "value": "marked down-regulation"}, {"measurement": "down-regulation in cell surface expression of CD16", "setting": "NK92 cells; Raji cells treated with rituximab, 60 minutes at 37° C.", "value": "induced the down-regulation"}]}
